# Laboratory results taken from ChEMBL document CHEMBL1146007, “Binding of sulfonyl-containing arylalkylamines at human 5-HT6 serotonin receptors” (J Med Chem, 2006).
# Target: 5-hydroxytryptamine receptor 6 (Homo sapiens, UniProt P50406)
# Test: Binding affinity to human 5HT6 receptor in HEK293 cells by radioligand binding assay
# Type: cell-based
# Chain of 5-hydroxytryptamine receptor 6 (P50406 whole entry): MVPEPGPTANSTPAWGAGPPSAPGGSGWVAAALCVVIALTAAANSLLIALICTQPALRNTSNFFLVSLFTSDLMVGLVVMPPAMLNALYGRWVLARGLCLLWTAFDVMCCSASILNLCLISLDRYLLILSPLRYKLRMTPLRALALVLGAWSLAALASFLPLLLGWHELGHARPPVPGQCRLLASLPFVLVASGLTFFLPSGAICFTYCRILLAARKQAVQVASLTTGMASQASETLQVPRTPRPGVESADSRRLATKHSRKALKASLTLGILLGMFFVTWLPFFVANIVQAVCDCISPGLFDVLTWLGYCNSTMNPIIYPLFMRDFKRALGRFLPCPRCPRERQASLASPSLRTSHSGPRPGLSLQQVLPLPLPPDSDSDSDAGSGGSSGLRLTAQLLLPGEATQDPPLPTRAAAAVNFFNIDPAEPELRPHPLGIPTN
row,SMILES,Ki
1,NCCc1cccc(S(=O)(=O)c2ccccc2)c1,50 nM
2,O=S(=O)(c1ccccc1)c1ccccc1N1CCNCC1,4000 nM
3,NCc1cccc(NS(=O)(=O)c2ccccc2)c1,290 nM
4,O=S(=O)(c1ccccc1)c1ccc(N2CCNCC2)cc1,6.9 nM
5,NCCc1cccc(Sc2ccccc2)c1,115 nM
6,NCCc1cccc(NS(=O)(=O)c2ccccc2)c1,21 nM
7,CN(C)CCc1cccc(NS(=O)(=O)c2ccccc2)c1,52 nM
8,CNCCc1cccc(NS(=O)(=O)c2ccccc2)c1,38 nM
9,O=S(=O)(c1ccccc1)c1cccc(N2CCNCC2)c1,1.2 nM
10,O=S(=O)(Nc1cccc(N2CCNCC2)c1)c1ccccc1,62 nM
11,NCCc1ccc(S(=O)(=O)c2ccccc2)cc1,37 nM
12,NCCCc1cccc(NS(=O)(=O)c2ccccc2)c1,230 nM
13,Nc1cccc(NS(=O)(=O)c2ccccc2)c1,2840 nM
14,COc1ccc(NS(=O)(=O)c2ccccc2)cc1CCN,17 nM
15,CN(C)CCc1ccn(S(=O)(=O)c2ccccc2)c1,15 nM
16,NCCc1cccc(S(=O)(=O)Nc2ccccc2)c1,70 nM
17,O=S(=O)(Nc1ccc(N2CCNCC2)cc1)c1ccccc1,85 nM
18,NCCc1ccc(NS(=O)(=O)c2ccccc2)cc1,38 nM
